≈ marks a conversion by molar mass, not a printed value. Calls of active or inactive are those of the source. No cut-off for these calls is given here.
How the values were obtained:
[1] = target: T1, Solute carrier family 2, facilitated glucose transporter member 4 (Rattus norvegicus) (UniProt P19357); assay: Induction of GLUT4 translocation in rat L6-GLUT4myc skeletal muscle cells assessed as translocation to cell surface by measuring fold stimulation at 10 uM measured after 16 hrs by antibody-coupled colorimetric assay; format: cell-based; settings: filed as activator
T1 sequence (whole entry): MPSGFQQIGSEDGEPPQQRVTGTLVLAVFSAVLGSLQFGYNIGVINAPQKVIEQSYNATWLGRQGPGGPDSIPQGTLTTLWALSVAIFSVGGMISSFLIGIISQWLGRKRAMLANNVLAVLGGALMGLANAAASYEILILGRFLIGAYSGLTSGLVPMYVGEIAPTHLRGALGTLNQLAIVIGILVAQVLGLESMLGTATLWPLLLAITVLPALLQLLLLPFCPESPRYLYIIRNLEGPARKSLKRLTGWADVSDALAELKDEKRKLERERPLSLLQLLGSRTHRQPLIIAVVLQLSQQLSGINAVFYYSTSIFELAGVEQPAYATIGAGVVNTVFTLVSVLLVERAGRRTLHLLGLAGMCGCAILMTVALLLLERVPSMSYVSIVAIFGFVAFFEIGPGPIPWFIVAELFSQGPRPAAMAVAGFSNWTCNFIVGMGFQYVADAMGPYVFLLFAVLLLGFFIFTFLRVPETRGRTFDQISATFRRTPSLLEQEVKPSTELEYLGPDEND

[2] = target: T1, Solute carrier family 2, facilitated glucose transporter member 4 (Rattus norvegicus); assay: Induction of GLUT4 translocation in rat L6-GLUT4myc skeletal muscle cells assessed as translocation to cell surface by measuring fold stimulation at 500 uM measured after 16 hrs by antibody-coupled colorimetric assay; format: cell-based; settings: filed as activator
Rattus norvegicus [3] = assay: Anti-hyperglycemic activity against STZ-induced diabetic Sprague-Dawley rat model assessed as reduction in blood glucose level at 300 mg/kg, po measured after 5 hrs relative to control; format: functional; set-up: scale not given: the % may be the effect or the level left
[4] = target: T1, Solute carrier family 2, facilitated glucose transporter member 4 (Rattus norvegicus); assay: Induction of GLUT4 translocation in rat L6-GLUT4myc skeletal muscle cells assessed as translocation to cell surface measured after 16 hrs by antibody-coupled colorimetric assay; format: cell-based; settings: filed as activator, dose 5-25 µM
[5] = target: T1, Solute carrier family 2, facilitated glucose transporter member 4 (Rattus norvegicus); assay: (§1) Induction of insulin-induced GLUT4 translocation in rat L6-GLUT4myc skeletal muscle cells assessed as translocation to cell surface at 10 uM measured after 16 hrs incubation (final 3 hrs under serum starved medium) followed by stimulated with 100 nM insulin for 20 mins by antibody-coupled colorimetric assay; format: cell-based; settings: filed as activator, time 980.0 min
[6] = target: T1, Solute carrier family 2, facilitated glucose transporter member 4 (Rattus norvegicus); assay: as §1, with “mins in presence of wortmannin PI3 Kinase inhibitor” for “mins”; format: cell-based; settings: time 980.0 min
L6-GLUT4myc [7] = assay: Induction of AKT phosphorylation at Ser 473 residue in rat L6-GLUT4myc skeletal muscle cells at 10 uM measured after 16 hrs by Western blot analysis; format: cell-based
[8] = target: 5'-AMP-activated protein kinase catalytic subunit alpha-1 (Rattus norvegicus) (UniProt P54645); assay: Activation of AMPKalpha in rat L6-GLUT4myc cells assessed as induction of AMPKalpha phosphorylation at Thr172 residue at 10 uM measured for 16 hrs by Western blot analysis; format: cell-based; settings: filed as activator
5'-AMP-activated protein kinase catalytic subunit alpha-1 (Rattus norvegicus), sequence (P54645 whole entry): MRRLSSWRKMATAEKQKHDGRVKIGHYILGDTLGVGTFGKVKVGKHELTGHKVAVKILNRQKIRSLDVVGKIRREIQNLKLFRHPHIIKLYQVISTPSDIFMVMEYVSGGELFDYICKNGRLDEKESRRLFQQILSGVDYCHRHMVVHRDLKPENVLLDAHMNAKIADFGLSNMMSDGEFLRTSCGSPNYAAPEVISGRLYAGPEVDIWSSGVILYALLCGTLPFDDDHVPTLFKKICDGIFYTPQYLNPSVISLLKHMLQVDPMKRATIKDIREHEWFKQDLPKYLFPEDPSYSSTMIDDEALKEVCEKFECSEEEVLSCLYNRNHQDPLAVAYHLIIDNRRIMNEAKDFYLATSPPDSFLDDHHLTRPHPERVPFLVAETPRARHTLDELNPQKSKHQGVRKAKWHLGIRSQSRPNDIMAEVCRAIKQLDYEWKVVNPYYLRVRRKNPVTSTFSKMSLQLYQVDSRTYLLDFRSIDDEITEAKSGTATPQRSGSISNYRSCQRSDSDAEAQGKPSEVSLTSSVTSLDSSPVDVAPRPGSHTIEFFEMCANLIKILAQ

L6-GLUT4myc [9] = assay: Effect on GLUT4 expression in rat L6-GLUT4myc cells at 10 uM incubated for 16 hrs by qRT-PCR analysis; format: functional, cell-based
L6-GLUT4myc [10] = assay: Effect on IRS1 expression in rat L6-GLUT4myc cells at 10 uM incubated for 16 hrs by qRT-PCR analysis; format: functional, cell-based
L6-GLUT4myc [11] = assay: Effect on AKT2 expression in rat L6-GLUT4myc cells at 10 uM incubated for 16 hrs by qRT-PCR analysis; format: functional, cell-based
Rattus norvegicus [12] = assay: Anti-hyperglycemic activity against STZ-induced diabetic Sprague-Dawley rat model assessed as reduction in blood glucose level at 100 mg/kg, po measured after 5 hrs relative to control; format: functional; set-up: scale not given: the % may be the effect or the level left
[13] = Stability of compound in simulated physiological fluid at pH 7.4 assessed as parent compound remaining measured after 120 mins by LC-MS/MS analysis; format: physicochemical; settings: read-out: Stability
[14] = Stability of compound in simulated gastric fluid at pH 1.2 assessed as parent compound remaining measured after 120 mins by LC-MS/MS analysis; format: physicochemical; settings: read-out: Stability
[15] = Stability of compound in simulated intestinal fluid at pH 6.8 assessed as parent compound remaining measured after 120 mins by LC-MS/MS analysis; format: physicochemical; settings: read-out: Stability
[16] = Thermodynamic solubility of compound in distilled water measured for 24 hrs by HPLC analysis; format: physicochemical; settings: read-out: Therm_solubility
[17] = Thermodynamic solubility of compound in HCL buffer at pH 1.2 measured for 24 hrs by HPLC analysis; format: physicochemical; settings: read-out: Therm_solubility
[18] = Thermodynamic solubility of compound in tris buffer at pH 7.4 measured for 24 hrs by HPLC analysis; format: physicochemical; settings: read-out: Therm_solubility
[19] = Metabolic stability in rat liver microsome assessed as half life measured upto 60 mins by HPLC analysis; format: ADME; settings: microsomes, 1 h
[20] = Metabolic stability in rat liver microsome assessed as intrinsic clearance measured upto 60 mins by HPLC analysis; format: ADME; settings: microsomes, 1 h

| fold change (FC) [1] | Compound | further results |
| --- | --- | --- |
| 1.08 | CC1=C(C(=O)Nc2ccc(-c3nc4ccccc4c(=O)n3C)cc2)C(c2ccc(N(C)C)cc2)NC(=O)N1 (stereo not given) |  |
| 1.24 | CC(=O)CC(=O)Nc1ccc(-c2nc3ccccc3c(=O)n2C)cc1 |  |
| 1.17 | CC1=C(C(=O)Nc2cccc(-c3nc4ccccc4c(=O)n3C)c2)C(c2ccc(Cl)cc2)NC(=O)N1 (stereo not given) |  |
|  | CN(C)C(=N)NC(=N)N [METFORMIN] | fold change (FC) [2]: 1.65; Activity (Rattus norvegicus [3]): 64.7% |
| 1.29 | CCn1c(-c2ccc(NC(=O)C3=C(C)NC(=O)NC3c3ccsc3)cc2)nc2ccccc2c1=O (stereo not given) |  |
| 1.02 | COc1ccc(C2NC(=O)NC(C)=C2C(=O)Nc2cccc(-c3nc4ccccc4c(=O)n3C)c2)cc1OC (stereo not given) |  |
| 1.14 | CC1=C(C(=O)Nc2ccc(-c3nc4ccccc4c(=O)n3C)cc2)C(CC(C)C)NC(=O)N1 (stereo not given) |  |
| 1.92 | CC1=C(C(=O)Nc2ccc(-c3nc4ccccc4c(=O)n3C)cc2)C(c2cccc(Cl)c2)NC(=O)N1 (stereo not given) | Activity [4]: Dose-dependent-effect |
| 1.54 | CC1=C(C(=O)Nc2ccc(-c3nc4ccccc4c(=O)n3C)cc2)C(c2ccc(C(F)(F)F)cc2)NC(=O)N1 (stereo not given) |  |
| 1.63 | CC1=C(C(=O)Nc2ccc(-c3nc4ccccc4c(=O)n3C)cc2)C(c2ccc(Cl)c(Cl)c2)NC(=O)N1 (stereo not given) |  |
| 1.1 | CC1=C(C(=O)Nc2cccc(-c3nc4ccccc4c(=O)n3C)c2)C(c2ccco2)NC(=O)N1 (stereo not given) |  |
| 1.32 | CCn1c(-c2ccc(NC(=O)C3=C(C)NC(=O)NC3c3ccccc3)cc2)nc2ccccc2c1=O (stereo not given) |  |
| 1.27 | CC1=C(C(=O)Nc2ccc(-c3nc4ccccc4c(=O)n3C)cc2)C(c2cccs2)NC(=O)N1 (stereo not given) |  |
| 1.21 | CC1=C(C(=O)Nc2ccc(-c3nc4ccccc4c(=O)n3C)cc2)C(c2ccc([N+](=O)[O-])cc2)NC(=O)N1 (stereo not given) |  |
| 1.01 | COc1ccc(C2NC(=O)NC(C)=C2C(=O)Nc2ccc(-c3nc4ccccc4c(=O)n3C)cc2)cc1OC (stereo not given) |  |
| 1.51 | CC1=C(C(=O)Nc2ccc(-c3nc4ccccc4c(=O)n3C)cc2)C(c2ccccc2Cl)NC(=O)N1 (stereo not given) |  |

| fold change (FC) [1] | Compound | further results |
| --- | --- | --- |
| 1.31 | CCn1c(-c2ccc(NC(=O)C3=C(C)NC(=O)NC3c3scnc3C)cc2)nc2ccccc2c1=O (stereo not given) |  |
| 1 | CC1=C(C(=O)Nc2cccc(-c3nc4ccccc4c(=O)n3C)c2)C(c2ccc([N+](=O)[O-])cc2)NC(=O)N1 (stereo not given) |  |
| 1.14 | CC1=C(C(=O)Nc2cccc(-c3nc4ccccc4c(=O)n3C)c2)C(c2ccc(Cl)cc2Cl)NC(=O)N1 (stereo not given) |  |
| 1.7 | CC1=C(C(=O)Nc2ccc(-c3nc4ccccc4c(=O)n3C)cc2)C(c2ccc(Cl)cc2)NC(=O)N1 (stereo not given) |  |
| 1.15 | CC1=C(C(=O)Nc2ccc(-c3nc4cccc(Cl)c4c(=O)n3C)cc2)C(c2ccc(Cl)cc2Cl)NC(=O)N1 (stereo not given) |  |
| 1.28 | COc1ccc(C2NC(=O)NC(C)=C2C(=O)Nc2ccc(-c3nc4ccccc4c(=O)n3C)cc2)cc1 (stereo not given) |  |
| 1.27 | CC1=C(C(=O)Nc2ccc(-c3nc4ccccc4c(=O)n3C)cc2)C(c2ccc(F)cc2)NC(=O)N1 (stereo not given) |  |
| 2.52 | CC1=C(C(=O)Nc2ccc(-c3nc4ccccc4c(=O)n3C)cc2)C(c2ccc(Cl)cc2Cl)NC(=O)N1 (stereo not given) | Activity [4]: Dose-dependent-effect; Activity [5]: Active; Activity [6]: inactive; Activity (L6-GLUT4myc [7]): No effect; Activity [8]: Active; Activity (L6-GLUT4myc [9]): No effect; Activity (L6-GLUT4myc [10]): No effect; Activity (L6-GLUT4myc [11]): No effect; Activity (Rattus norvegicus [12]): ~39.5%; remaining at 2 h [13]: ≥ 60%; remaining at 2 h [14]: ≥ 60%; remaining at 2 h [15]: ≥ 60%; solubility thermodynamic at 24 h [16]: 0.36 µg/mL (≈ 0.674 µM); solubility thermodynamic at 24 h [17]: 23.8 µg/mL (≈ 44.6 µM); solubility thermodynamic at 24 h [18]: 0.25 µg/mL (≈ 0.468 µM); t1/2 [19]: 3.16 min; CLH [20]: 1.336 µL/min/mg |
| 1.32 | CCn1c(-c2ccc(NC(=O)C3=C(C)NC(=O)NC3c3ccco3)cc2)nc2ccccc2c1=O (stereo not given) |  |
| 1.13 | CC1=C(C(=O)Nc2cccc(-c3nc4ccccc4c(=O)n3C)c2)C(c2ccc(F)cc2)NC(=O)N1 (stereo not given) |  |
| 1.16 | CC1=C(C(=O)Nc2cccc(-c3nc4ccccc4c(=O)n3C)c2)C(c2cccs2)NC(=O)N1 (stereo not given) |  |
| 1.1 | CC1=C(C(=O)Nc2ccc(-c3nc4ccccc4c(=O)n3C)cc2)C(c2ccc(C#N)cc2)NC(=O)N1 (stereo not given) |  |
| 1.11 | CC1=C(C(=O)Nc2ccc(-c3nc4ccccc4c(=O)n3C)cc2)C(c2ccco2)NC(=O)N1 (stereo not given) |  |
| 1.7 | CCn1c(-c2ccc(NC(=O)C3=C(C)NC(=O)NC3c3ccc(Cl)cc3)cc2)nc2ccccc2c1=O (stereo not given) |  |
| 1.05 | CC1=C(C(=O)Nc2ccc(-c3nc4ccccc4c(=O)n3C)cc2)C(c2scnc2C)NC(=O)N1 (stereo not given) |  |
